The text below walks through data of article PMC7154053, “Chemical, Metabolic, and Cellular Characterization of a FtsZ Inhibitor Effective Against Burkholderia cenocepacia” (Frontiers in Microbiology, 2020).

For one data set, the system named is P. aeruginosa PAO1. Put plainly: MIC, 2-fold microdilution, resazurin method. Format: cell-based. The settings on record: Pseudomonas aeruginosa, PAO1. The method, then: (§1) Burkholderia cenocepacia strains, Escherichia coli ATCC 25922, Pseudomonas aeruginosa PAO1, and Staphylococcus aureus ATCC 25923 were grown in Luria-Bertani (LB) medium (Difco), if not differently specified, with shaking at 200 rpm, or on LB agar, at 37°C.
(§2) The microtiter plates were incubated at 37°C for 48 (for B. cenocepacia) or 24 h (for all the other strains) and growth was determined by the resazurin method (Martin et al., [2006]). A solution of resazurin sodium salt (Sigma Aldrich) was prepared at 0.01% in distilled water and filter-sterilized. Thirty microliter of resazurin solution were added to each well after 1 or 2 days of incubation at 37°C, and the microtiters were re-incubated at the same temperature for 4 h. The MIC was defined as the lowest concentration of the drug that prevented a change in color from blue to pink, which indicates bacterial growth.
(§3) Three independent biological replicates were used for each MIC determination.
A general note: In broth dilution the organism is exposed to a series of concentrations in liquid medium.

The next data set concerns E. coli ATCC 25922. Kind of data set: MIC, 2-fold microdilution, resazurin method. It counts as cell-based. The conditions noted are these: Escherichia coli, ATCC25922. How it is done:
as §1, §2, §3

Another data set has as its system S. aureus ATCC 25923. Kind of data set: MIC, 2-fold microdilution, resazurin method. It counts as cell-based, Staphylococcus aureus. The conditions noted are these: for MIC: Staphylococcus aureus, ATCC25923; for spectrum of activity, in words: S. aureus vs Gram-negative species. How it is done: as §1, §2, §3
In a further data set the test system is B. cenocepacia J2315. Put plainly: MIC, 2-fold microdilution, resazurin method. It counts as cell-based, Burkholderia cenocepacia. The conditions noted are these: Burkholderia cenocepacia. How it is done:
as §1, §2, §3

Data set [1] has as its target Burkholderia cenocepacia purified FtsZ protein (Burkholderia cenocepacia, UniProt B4E5Y7). Put plainly: biochemical. Format: biochemical. The settings on record: for Inhibition of Bc FtsZ At 100 μM: 100 μM compound; for Inhibition of Bc FtsZ At 100 μM / Inhibits B. cenocepacia FtsZ GTPase at 100µM?: Yes/No; for Inhibits B. cenocepacia FtsZ GTPase at 100µM?: Supplementary Table 1. The method, then:
All the recombinant FtsZ proteins were expressed at 20°C overnight in E. coli BL21(DE3) cells, upon induction with 0.5 mM IPTG, and purified using the same protocol assessed for the wild-type B. cenocepacia FtsZ (Hogan et al., [2018]).
GTPase enzyme activity was determined using a pyruvate kinase/L-lactic dehydrogenase (PK/LDH) spectrophotometric coupled assay (Ingerman and Nunnari, [2005]). The assays were performed at 30°C, in a reaction mixture containing […] Hepes pH 7.5, 5 mM MgCl2, 5 mM KCl, 10 U PK/LDH, 0.25 mM NADH, 0.25 mM PEP, and 5–10 μM FtsZ, and initiated by the addition of 0.5 mM GTP. Alternatively, GTPase activity was determined by measuring the release of phosphate using the malachite green assay (Baykov et al., [1988]).
(1) A[I]=A[0]×(1-[I]/[I]+IC50)
where A[I] is the enzyme activity at inhibitor concentration [I] and A[0] is the enzyme activity without inhibitor.

Where [2] appears, read: LB, 24 h, read-out: MIC P. aeruginosa PAO1.
Where [3] appears, read: Supplementary Table 1, read-out: MIC (µg/ml) P. aeruginosa PAO1.
Setting [4] is: LB, 24 h, read-out: MIC E. coli 25922.
Where [5] appears, read: Supplementary Table 1, read-out: MIC (µg/ml) E. coli 25922.
[6] abbreviates: LB, 24 h, read-out: MIC S. aureus 25923.
Where [7] appears, read: Supplementary Table 1, read-out: MIC (µg/ml) S. aureus 25923.
Setting [8] is: J2315, LB, 48 h, read-out: MIC B. cenocepacia J2315.
Setting [9] is: J2315, Supplementary Table 1, read-out: MIC (µg/ml) B. cenocepacia J2315.

Converted amounts (≈) assume the structure as drawn. Read-outs that look alike come from different tables or passages of the source.

Chain of Burkholderia cenocepacia purified FtsZ protein (B4E5Y7 entry or part of it): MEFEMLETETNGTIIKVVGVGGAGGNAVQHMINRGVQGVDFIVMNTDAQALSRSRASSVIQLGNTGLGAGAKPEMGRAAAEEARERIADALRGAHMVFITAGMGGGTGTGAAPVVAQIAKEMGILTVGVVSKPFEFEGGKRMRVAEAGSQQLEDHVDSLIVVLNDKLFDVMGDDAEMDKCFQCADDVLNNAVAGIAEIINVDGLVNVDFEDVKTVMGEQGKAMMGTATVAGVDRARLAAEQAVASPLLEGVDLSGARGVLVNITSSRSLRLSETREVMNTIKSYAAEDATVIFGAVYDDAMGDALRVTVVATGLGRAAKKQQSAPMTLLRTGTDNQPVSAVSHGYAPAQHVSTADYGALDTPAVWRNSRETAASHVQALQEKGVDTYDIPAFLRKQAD

The term melting point denotes the temperature, or range, at which the solid turns liquid. In general, IC50 refers to the point on the concentration scale where inhibition reaches its midpoint. Read a high IC50 as a need for much substance. As to `COC(=O)C(C)Sc1ccc2nsnc2c1[N+](=O)[O-]` (centres unmarked) [compound 11826363], the melting point lay within 161 to 163 °C. In the data set with P. aeruginosa PAO1 (setting [2]), the MIC worked out at 256 µg/mL (≈ 855 µM). For the same compound, in the data set on P. aeruginosa PAO1 (setting [3]), the MIC was 256 µg/mL (≈ 855 µM). Also, in the data set with E. coli ATCC 25922 (setting [4]), the MIC came to 16 µg/mL (≈ 53.5 µM). In the data set on E. coli ATCC 25922 (setting [5]), the MIC was 16 µg/mL (≈ 53.5 µM). In addition, the MIC with S. aureus ATCC 25923 (setting [6]) came out at 64 µg/mL (≈ 214 µM). Moreover, the MIC with S. aureus ATCC 25923 (setting [7]) turned out to be 64 µg/mL (≈ 214 µM). In addition, in the data set with B. cenocepacia J2315 (setting [8]), the MIC amounted to 16 µg/mL (≈ 53.5 µM). Further, in the data set on B. cenocepacia J2315 (setting [9]), the MIC came to 16 µg/mL (≈ 53.5 µM). Also, in data set [1], the IC50 turned out to be 30 µM, the “Inhibition of Bc FtsZ At 100 μM” value is on record as “Yes” and the “Inhibits B. cenocepacia FtsZ GTPase at 100µM?” value is on record as “Yes”.

As to `CN(C)C(=S)Sc1ccc2nsnc2c1[N+](=O)[O-]` [compound 10126130], the melting point is 137 to 139 °C. In addition, the MIC in the data set with P. aeruginosa PAO1 (setting [2]) is more than 128 µg/mL. In addition, the MIC with P. aeruginosa PAO1 (setting [3]) was more than 128 µg/mL. The MIC with E. coli ATCC 25922 (setting [4]) amounted to 512 µg/mL (≈ 1700 µM). Also, the MIC in the data set with E. coli ATCC 25922 (setting [5]) is 512 µg/mL (≈ 1700 µM). Moreover, the MIC in the data set with S. aureus ATCC 25923 (setting [6]) turned out to be 32 µg/mL (≈ 107 µM). Besides, the MIC with S. aureus ATCC 25923 (setting [7]) was determined as 32 µg/mL (≈ 107 µM). The MIC with B. cenocepacia J2315 (setting [8]) was more than 128 µg/mL. Moreover, the MIC in the data set with B. cenocepacia J2315 (setting [9]) was more than 128 µg/mL. Moreover, in data set [1], inhibition was half-maximal at 10 µM (IC50), the “Inhibition of Bc FtsZ At 100 μM” value is on record as “Yes” and the “Inhibits B. cenocepacia FtsZ GTPase at 100µM?” value is “Yes”.

`N#CSc1cc(SC#N)c2nsnc2c1[N+](=O)[O-]` [compound 10626056] had a melting point of 167 to 169 °C. Besides, the MIC in the data set with P. aeruginosa PAO1 (setting [2]) is more than 128 µg/mL. For the same compound, in the data set on P. aeruginosa PAO1 (setting [3]), the MIC is more than 128 µg/mL. Moreover, the MIC in the data set with E. coli ATCC 25922 (setting [4]) was more than 512 µg/mL. The MIC in the data set on E. coli ATCC 25922 (setting [5]) was more than 512 µg/mL. Further, the “spectrum of activity, in words” value in the data set on S. aureus ATCC 25923 is “showed activity only against S. aureus”. The MIC in the data set with S. aureus ATCC 25923 (setting [6]) amounted to 8 µg/mL (≈ 27.1 µM). Besides, the MIC with S. aureus ATCC 25923 (setting [7]) was determined as 8 µg/mL (≈ 27.1 µM). The MIC in the data set on B. cenocepacia J2315 (setting [8]) was more than 64 µg/mL. The MIC in the data set on B. cenocepacia J2315 (setting [9]) is more than 64 µg/mL. Besides, in data set [1], half-maximal inhibition (IC50) was put at 52 µM, the “Inhibition of Bc FtsZ At 100 μM” value is reported as “Yes” and the “Inhibits B. cenocepacia FtsZ GTPase at 100µM?” value was “Yes”.

For `N#CSc1cc(-c2ccc([N+](=O)[O-])cc2)c2nsnc2c1[N+](=O)[O-]` [compound 11026176], the MIC in the data set on P. aeruginosa PAO1 (setting [2]) was more than 128 µg/mL; in the data set on P. aeruginosa PAO1 (setting [3]), more than 128 µg/mL; with E. coli ATCC 25922 (setting [4]) it was more than 512 µg/mL; with E. coli ATCC 25922 (setting [5]) it was more than 512 µg/mL; in the data set on S. aureus ATCC 25923 (setting [6]), 4 µg/mL (≈ 11.1 µM); in the data set with S. aureus ATCC 25923 (setting [7]), 4 µg/mL (≈ 11.1 µM). Besides, the MIC in the data set on B. cenocepacia J2315 (J2315, 48 h, read-out: MIC B. cenocepacia J2315) is more than 512 µg/mL; with B. cenocepacia J2315 (J2315, read-out: MIC (µg/ml) B. cenocepacia J2315), more than 512 µg/mL. In addition, the “spectrum of activity, in words” value in the data set on S. aureus ATCC 25923 is “showed activity only against S. aureus”. The IC50 in data set [1] is 17 µM. Further, the “Inhibition of Bc FtsZ At 100 μM” value in data set [1] is on record as “Yes”. Moreover, the “Inhibits B. cenocepacia FtsZ GTPase at 100µM?” value in data set [1] is “Yes”.

For the compound `O=[N+]([O-])c1c(SC(=S)N2CCSCC2)ccc2nsnc12` [compound 11126015], the melting point lay in the range of 140 to 142 °C. Besides, the MIC in the data set on P. aeruginosa PAO1 (setting [2]) was more than 128 µg/mL. Further, in the data set on P. aeruginosa PAO1 (setting [3]), the MIC was more than 128 µg/mL. Also, the MIC in the data set on E. coli ATCC 25922 (setting [4]) is more than 512 µg/mL. For the same compound, the MIC in the data set on E. coli ATCC 25922 (setting [5]) is more than 512 µg/mL. Moreover, the “spectrum of activity, in words” value in the data set with S. aureus ATCC 25923 was “showed activity only against S. aureus”. Besides, the MIC in the data set with S. aureus ATCC 25923 (setting [6]) is 32 µg/mL (≈ 89.3 µM). Also, in the data set with S. aureus ATCC 25923 (setting [7]), the MIC was determined as 32 µg/mL (≈ 89.3 µM). Moreover, in the data set on B. cenocepacia J2315 (setting [8]), the MIC is more than 128 µg/mL. Further, in the data set with B. cenocepacia J2315 (setting [9]), the MIC is more than 128 µg/mL. For the same compound, in data set [1], the IC50 was determined as 36 µM, the “Inhibition of Bc FtsZ At 100 μM” value was “Yes” and the “Inhibits B. cenocepacia FtsZ GTPase at 100µM?” value is “Yes”.

Take `CCOC(=O)CSc1c(C)cc2nsnc2c1[N+](=O)[O-]` [compound 11926142]: the melting point was in the range of 181 to 183 °C. For the same compound, the MIC with P. aeruginosa PAO1 (setting [2]) is more than 256 µg/mL. Further, in the data set on P. aeruginosa PAO1 (setting [3]), the MIC is more than 256 µg/mL. For the same compound, the MIC with E. coli ATCC 25922 (setting [4]) was more than 256 µg/mL. In the data set on E. coli ATCC 25922 (setting [5]), the MIC was more than 256 µg/mL. The MIC in the data set on S. aureus ATCC 25923 (setting [6]) worked out at 32 µg/mL (≈ 102 µM). Moreover, the MIC in the data set on S. aureus ATCC 25923 (setting [7]) is 32 µg/mL (≈ 102 µM). Besides, in the data set on B. cenocepacia J2315 (setting [8]), the MIC is more than 256 µg/mL. Moreover, the MIC with B. cenocepacia J2315 (setting [9]) is more than 256 µg/mL. For the same compound, in data set [1], the IC50 amounted to 100 µM, the “Inhibition of Bc FtsZ At 100 μM” value was “Yes” and the “Inhibits B. cenocepacia FtsZ GTPase at 100µM?” value is listed as “Yes”.
